Source: PMC6628374, “Preparation and Identification of Novel Antihypertensive Peptides from the In Vitro Gastrointestinal Digestion of Marine Cobia Skin Hydrolysates” (Nutrients, 2019)
Read-outs that look alike come from different tables or passages of the source. Peptide text beside a SMILES is read from it.

How the values were obtained:
[1] = biological target: T1, Rabbit lung ACE (Oryctolagus cuniculus, UniProt P12822); test: ACE inhibition assay (RP-HPLC, HHL substrate); assay type: biochemical; settings: for Inhibition (%): at the peak's own peptide concentration; for IC50: identified peptides of peaks E6 to E9
T1 construct: Enzymes including pepsin, pancreatin and rabbit lung ACE were purchased from Sigma Chemical Co; purchased Sigma Chemical Co. (St. Louis, MO, USA); host or cells: rabbit lung (tissue-derived)
T1 sequence (P12822 34-1310): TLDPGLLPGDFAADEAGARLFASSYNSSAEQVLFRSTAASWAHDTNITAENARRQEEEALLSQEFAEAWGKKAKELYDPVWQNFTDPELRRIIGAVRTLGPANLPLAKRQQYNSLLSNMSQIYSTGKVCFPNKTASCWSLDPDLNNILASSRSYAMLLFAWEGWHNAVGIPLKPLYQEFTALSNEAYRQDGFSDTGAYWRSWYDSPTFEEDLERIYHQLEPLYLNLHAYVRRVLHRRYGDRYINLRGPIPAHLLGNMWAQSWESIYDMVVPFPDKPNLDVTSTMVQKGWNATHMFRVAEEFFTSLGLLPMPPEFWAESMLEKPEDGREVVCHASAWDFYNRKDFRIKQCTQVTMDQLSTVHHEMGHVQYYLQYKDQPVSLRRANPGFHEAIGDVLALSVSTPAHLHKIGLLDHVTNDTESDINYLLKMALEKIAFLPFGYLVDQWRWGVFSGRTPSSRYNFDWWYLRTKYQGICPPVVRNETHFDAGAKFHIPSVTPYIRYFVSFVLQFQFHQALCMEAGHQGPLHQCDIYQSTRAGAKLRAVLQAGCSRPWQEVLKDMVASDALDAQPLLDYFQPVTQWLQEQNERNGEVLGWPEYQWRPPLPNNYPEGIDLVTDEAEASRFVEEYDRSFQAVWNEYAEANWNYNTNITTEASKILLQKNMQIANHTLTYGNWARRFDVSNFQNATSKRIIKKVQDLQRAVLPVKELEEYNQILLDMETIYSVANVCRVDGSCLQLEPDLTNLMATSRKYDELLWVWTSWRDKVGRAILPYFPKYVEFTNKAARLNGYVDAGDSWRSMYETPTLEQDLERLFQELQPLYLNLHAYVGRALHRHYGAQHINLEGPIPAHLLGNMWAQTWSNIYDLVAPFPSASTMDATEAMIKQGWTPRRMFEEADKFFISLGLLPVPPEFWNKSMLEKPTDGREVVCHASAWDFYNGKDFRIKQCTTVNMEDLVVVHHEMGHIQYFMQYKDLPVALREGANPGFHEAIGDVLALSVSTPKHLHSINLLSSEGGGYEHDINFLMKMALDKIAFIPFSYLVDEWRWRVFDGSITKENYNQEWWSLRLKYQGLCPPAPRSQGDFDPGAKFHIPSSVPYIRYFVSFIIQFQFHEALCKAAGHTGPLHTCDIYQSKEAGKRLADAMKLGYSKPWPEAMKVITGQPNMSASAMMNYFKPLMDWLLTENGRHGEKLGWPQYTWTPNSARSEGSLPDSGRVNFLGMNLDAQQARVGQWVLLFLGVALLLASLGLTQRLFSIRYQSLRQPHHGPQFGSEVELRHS
Experimental: RP-HPLC was used to measure ACE inhibition by means of a method devised by Cushman and Cheung. The sample consisted of 15 mM HHL in Na-borate buffer (100 mM, pH 8.3) plus NaCl (300 mM). […] Equal volumes (75 μL) of the ACE solution and samples passed through a 5-kDa MWCO membrane were then incubated for 10 min at 37 °C. […] of the solution of HHL was then added and incubation was continued for a further 30 min. 1.0 N HCl (250 μL) was used to stop the reaction and 10 μL was injected into a Luna C18 column. […] Finally, inhibition activity was calculated using the following formula:Inhibition activity (%) = ((Ec - Es) / (Ec - Eb)) × 100where Ec is the absorbance when the buffer was added as control, Es is the absorbance when the sample was added to the reaction mixture (sample), and Eb is the absorbance when the stop solution was added before the reaction occurred (blank). […] The data used in this study were all averages of three readings or standard deviations (SDs).

[2] = design: method as in doi:10.1016/j.idairyj.2015.09.004; settings: human volunteers, 100 mg oral, after 30 min; cited from earlier work
[3] = system: ACE; settings: cited from earlier work
[4] = system: ACE activity in plasma; design: method as in doi:10.1016/j.idairyj.2015.09.004; settings: human volunteers, 100 mg oral, at 1.5 h; cited from earlier work
[5] = biological target: angiotensin I-converting enzyme (rabbit lung ACE) (rabbit) (UniProt P12822)
[6] = biological target: angiotensin I-converting enzyme (rabbit lung ACE) (rabbit) (UniProt P12822); remark: listed apart in the source
[7] = RP-HPLC peaks of fraction E from PX-5G
[8] = equivalent of the μM value, read-out: IC50 (mg/mL) (converted)
[9] = peptides from Pacific cod skin gelatin hydrolysates (<1 kDa)
[10] = dipeptides from salmon muscle hydrolysate

For `C[C@H](NC(=O)[C@H](C)NC(=O)[C@@H](N)Cc1c[nH]c2ccccc12)C(=O)O` [Peak E6, Trp-Ala-Ala] (H-Trp-Ala-Ala-OH), the “Inhibition (%)” value [1, 7] was 41.9%, the IC50 [1, 8] was 119 µM and the IC50 ([1]; read-out: IC50) was 118 ± 2.8 µM.
With `C[C@H](N)C(=O)N[C@@H](Cc1c[nH]c2ccccc12)C(=O)N[C@@H](Cc1c[nH]c2ccccc12)C(=O)O` [Peak E7, Ala-Trp-Trp] (H-Ala-Trp-Trp-OH) the “Inhibition (%)” value [1, 7] was 81.1%, the IC50 [1, 8] was 9.4 µM and the IC50 ([1]; read-out: IC50) was 9.4 ± 0.6 µM.
For `CC[C@H](C)[C@H](N)C(=O)N[C@@H](Cc1c[nH]c2ccccc12)C(=O)N[C@@H](Cc1c[nH]c2ccccc12)C(=O)O` [Peak E8, Ile-Trp-Trp] (H-Ile-Trp-Trp-OH), the “Inhibition (%)” value [1, 7] was 93.4%, the IC50 [1, 8] was 0.516 µM and the IC50 ([1]; read-out: IC50) was 0.51 ± 0.1 µM.
For `CC(C)C[C@H](NC(=O)[C@@H](N)Cc1c[nH]c2ccccc12)C(=O)O` [Peak E9, Trp-Leu] (H-Trp-Leu-OH; N-terminus and C-terminus assumed), the maximum plasma concentration [2] is listed as 29 to 36 pmol/mL, the ACE-inhibition mode [3] is listed as “noncompetitive inhibitors” and the IC50 [3] is listed as 29.9 to 34.1 µM. For the same molecule, the “IER (inhibitory efficiency ratio)” value [1, 7] was 3021.4 %/mg/mL, the “Inhibition (%)” value [1, 7] was 42.3% and the IC50 [1, 8] was 26.8 µM. The IC50 ([1]; read-out: IC50) was 26.8 ± 0.9 µM and the “decrease of ACE activity in plasma” value [4] was 16–22%.
Molecule Ala-Trp-Trp (peptide) has an IC50 of inhibition of ACE enzyme activity (hippuric acid released from HHL, RP-HPLC, 37 °C, pH 8.3) [5] of 9.4 μM and an Inhibition (%) of ACE enzyme activity by peak E7 at 0.058 mg/mL peptide [6] of 81.1%.
In the case of G-A-S-S-G-M-P-G (GASSGMPG), the IC50 [3, 9] is given as 6.9 µM.
For G–R-G-S–V-P–A–Hyp–G-P, the IC50 ([3]; peptide from squid skin collagen hydrolysate fraction <1 kDa) is listed as 47.8 µM.
Ile-Trp-Trp (peptide) gave an IC50 of inhibition of ACE enzyme activity (hippuric acid released from HHL, RP-HPLC, 37 °C, pH 8.3) [5] of 0.51 μM and an Inhibition (%) of ACE enzyme activity by peak E8 at 0.028 mg/mL peptide [6] of 93.4%.
For L-A-Y-A, the IC50 [3, 9] is listed as 14.5 µM.
For Leu-Trp, the ACE-inhibition mode [3] is listed as “noncompetitive inhibitors”.
For Met-Trp, the IC50 [3, 10] is given as 9.8 µM.
For Trp-Ala-Ala (peptide), the IC50 of inhibition of ACE enzyme activity (hippuric acid released from HHL, RP-HPLC, 37 °C, pH 8.3) [5] was 118 μM and the Inhibition (%) of ACE enzyme activity by peak E6 at 0.048 mg/mL peptide [6] was 41.9%.
In the case of Trp-Leu (peptide), the IC50 of inhibition of ACE enzyme activity (hippuric acid released from HHL, RP-HPLC, 37 °C, pH 8.3) [5] is reported as 26.8 μM and the Inhibition (%) of ACE enzyme activity by peak E9 at 0.014 mg/mL peptide [6] is reported as 42.3%.
For Trp-Met, the IC50 [3, 10] is given as 98.6 µM.
For “Val-Arg-Tyr-Leu (VRYL; printed: Val-Arg-Tyr-Leu)”, the “IC50 before hydrolysis with gastrointestinal proteases” value ([3]; peptide from Manchego cheese) is given as 9 µg/mL.
